pEC50: −log10 of the molar value.
The molecules below were run on HCV pseudoparticles (genotype 1a HCV E1 and E2 envelope, H77C isolate) (assay: microbe, parasite or virus in culture). Details: Hepatitis C virus, Huh-7, 48 h, HCV pseudoparticles (genotype 1a, H77C) in Huh7 cells; average of duplicate; luciferase 2 days after infection.
Assay type: cell-based

Structure (SMILES)	pEC50
O=C(NC[C@H](NC(=O)c1ccc(Nc2nc(NC3(c4ccc(Cl)cc4)CC3)nc(OCC(F)(F)F)n2)cc1)C(=O)O)C(=O)Nc1ccc(Oc2ccncc2)cc1 [Compound 3289]	8.60
CCc1ccc(NC(=O)C(=O)NC[C@H](NC(=O)c2ccc(Nc3nc(NC4(c5ccc(Cl)cc5)CC4)nc(OCC(F)(F)F)n3)cc2)C(=O)O)cc1 [Compound 3296]	9.62
COC(=O)[C@H](CCNC(=O)C(=O)Nc1ccc(N2CCC(C(C)=O)CC2)cc1)NC(=O)c1ccc(Nc2nc(NC3(c4ccc(Cl)cc4)CC3)nc(OCC(F)(F)F)n2)cc1 [Compound 3303]	8.25
COC(=O)[C@H](CCNC(=O)C(=O)Nc1ccc(-c2cc[nH]n2)cc1)NC(=O)c1ccc(Nc2nc(NC3(c4ccc(Cl)cc4)CC3)nc(OCC(F)(F)F)n2)cc1 [Compound 3310]	8.67
COC(=O)[C@H](CCNC(=O)C(=O)Nc1ccc(-n2ccnc2C)cc1)NC(=O)c1ccc(Nc2nc(NC3(c4ccc(Cl)cc4)CC3)nc(OCC(F)(F)F)n2)cc1 [Compound 3320]	8.06
COC(=O)[C@H](CCNC(=O)C(=O)Nc1ccc(OC2CCOCC2)cc1)NC(=O)c1ccc(Nc2nc(NC3(c4ccc(Cl)cc4)CC3)nc(OCC(F)(F)F)n2)cc1 [Compound 3325]	8.62

Same assay, conditions: Hepatitis C virus, Huh-7, read-out: Activity (EC50 class), HCV pseudoparticles (genotype 1a, H77C) in Huh7 cells; EC50 expressed as class A/B

Structure (SMILES)	pEC50
Cc1nccn1Cc1ccc(NC(=O)C(=O)NC[C@H](NC(=O)c2ccc(Nc3nc(NC4(c5ccc(Cl)cc5)CC4)nc(OCC(F)(F)F)n3)cc2)C(=O)O)cc1 [Compound 3287]	8.00 to 11.00
COCc1ccc(NC(=O)C(=O)NC[C@H](NC(=O)c2ccc(Nc3nc(NC4(c5ccc(Cl)cc5)CC4)nc(OCC(F)(F)F)n3)cc2)C(=O)O)cc1 [Compound 3288]	8.00 to 11.00
O=C(NC[C@H](NC(=O)c1ccc(Nc2nc(NC3(c4ccc(Cl)cc4)CC3)nc(OCC(F)(F)F)n2)cc1)C(=O)O)C(=O)Nc1ccc(Oc2ccncc2)cc1 [Compound 3289]	8.00 to 11.00
O=C(NC[C@H](NC(=O)c1ccc(Nc2nc(NC3(c4ccc(Cl)cc4)CC3)nc(OCC(F)(F)F)n2)cc1)C(=O)O)C(=O)Nc1ccc(Oc2cccnc2)cc1 [Compound 3290]	8.00 to 11.00
O=C(NC[C@H](NC(=O)c1ccc(Nc2nc(NC3(c4ccc(Cl)cc4)CC3)nc(OCC(F)(F)F)n2)cc1)C(=O)O)C(=O)Nc1ccc(OC2CCOCC2)cc1 [Compound 3291]	8.00 to 11.00
O=C(NC[C@H](NC(=O)c1ccc(Nc2nc(NC3(c4ccc(Cl)cc4)CC3)nc(OCC(F)(F)F)n2)cc1)C(=O)O)C(=O)Nc1ccc(-c2ncco2)cc1 [Compound 3292]	8.00 to 11.00
CCOc1ccc(NC(=O)C(=O)NC[C@H](NC(=O)c2ccc(Nc3nc(NC4(c5ccc(Cl)cc5)CC4)nc(OCC(F)(F)F)n3)cc2)C(=O)O)cc1 [Compound 3293]	8.00 to 11.00
CC(C)(C)c1ccc(NC(=O)C(=O)NC[C@H](NC(=O)c2ccc(Nc3nc(NC4(c5ccc(Cl)cc5)CC4)nc(OCC(F)(F)F)n3)cc2)C(=O)O)cc1 [Compound 3294]	8.00 to 11.00
CC(C)c1ccc(NC(=O)C(=O)NC[C@H](NC(=O)c2ccc(Nc3nc(NC4(c5ccc(Cl)cc5)CC4)nc(OCC(F)(F)F)n3)cc2)C(=O)O)cc1 [Compound 3295]	8.00 to 11.00
CCc1ccc(NC(=O)C(=O)NC[C@H](NC(=O)c2ccc(Nc3nc(NC4(c5ccc(Cl)cc5)CC4)nc(OCC(F)(F)F)n3)cc2)C(=O)O)cc1 [Compound 3296]	8.00 to 11.00
O=C(NC[C@H](NC(=O)c1ccc(Nc2nc(NC3(c4ccc(Cl)cc4)CC3)nc(OCC(F)(F)F)n2)cc1)C(=O)O)C(=O)Nc1ccc(CC(F)(F)F)cc1 [Compound 3297]	8.00 to 11.00
CC(F)Oc1ccc(NC(=O)C(=O)NC[C@H](NC(=O)c2ccc(Nc3nc(NC4(c5ccc(Cl)cc5)CC4)nc(OCC(F)(F)F)n3)cc2)C(=O)O)cc1 (some centres unmarked) [Compound 3298]	8.00 to 11.00
COC(=O)[C@H](CCNC(=O)C(=O)Nc1ccc(Cn2cncn2)cc1)NC(=O)c1ccc(Nc2nc(NC3(c4ccc(Cl)cc4)CC3)nc(OCC(F)(F)F)n2)cc1 [Compound 3299]	8.00 to 11.00
COC(=O)[C@H](CCNC(=O)C(=O)Nc1ccc(-n2ccnc2)cc1)NC(=O)c1ccc(Nc2nc(NC3(c4ccc(Cl)cc4)CC3)nc(OCC(F)(F)F)n2)cc1 [Compound 3300]	6.00 to 8.00
COC(=O)[C@H](CCNC(=O)C(=O)Nc1ccc(Oc2ccc(F)cc2)cc1)NC(=O)c1ccc(Nc2nc(NC3(c4ccc(Cl)cc4)CC3)nc(OCC(F)(F)F)n2)cc1 [Compound 3301]	8.00 to 11.00
COC(=O)[C@H](CCNC(=O)C(=O)Nc1ccc(-c2nc(OC)cc(OC)n2)cc1)NC(=O)c1ccc(Nc2nc(NC3(c4ccc(Cl)cc4)CC3)nc(OCC(F)(F)F)n2)cc1 [Compound 3302]	8.00 to 11.00
COC(=O)[C@H](CCNC(=O)C(=O)Nc1ccc(N2CCC(C(C)=O)CC2)cc1)NC(=O)c1ccc(Nc2nc(NC3(c4ccc(Cl)cc4)CC3)nc(OCC(F)(F)F)n2)cc1 [Compound 3303]	8.00 to 11.00
COC(=O)[C@H](CCNC(=O)C(=O)Nc1ccc(-c2ccccc2C)cc1)NC(=O)c1ccc(Nc2nc(NC3(c4ccc(Cl)cc4)CC3)nc(OCC(F)(F)F)n2)cc1 [Compound 3304]	8.00 to 11.00
COC(=O)[C@H](CCNC(=O)C(=O)Nc1ccc(-c2ccc(C)cc2)cc1)NC(=O)c1ccc(Nc2nc(NC3(c4ccc(Cl)cc4)CC3)nc(OCC(F)(F)F)n2)cc1 [Compound 3305]	8.00 to 11.00
COC(=O)[C@H](CCNC(=O)C(=O)Nc1ccc(N2Cc3ccccc3C2)cc1)NC(=O)c1ccc(Nc2nc(NC3(c4ccc(Cl)cc4)CC3)nc(OCC(F)(F)F)n2)cc1 [Compound 3306]	8.00 to 11.00
COC(=O)[C@H](CCNC(=O)C(=O)Nc1ccc(-c2csc(C)n2)cc1)NC(=O)c1ccc(Nc2nc(NC3(c4ccc(Cl)cc4)CC3)nc(OCC(F)(F)F)n2)cc1 [Compound 3307]	8.00 to 11.00
COC(=O)[C@H](CCNC(=O)C(=O)Nc1ccc(-n2cnnn2)cc1)NC(=O)c1ccc(Nc2nc(NC3(c4ccc(Cl)cc4)CC3)nc(OCC(F)(F)F)n2)cc1 [Compound 3308]	8.00 to 11.00

Structure (SMILES)	pEC50
CCOCCOc1ccc(NC(=O)C(=O)NCC[C@H](NC(=O)c2ccc(Nc3nc(NC4(c5ccc(Cl)cc5)CC4)nc(OCC(F)(F)F)n3)cc2)C(=O)OC)cc1 [Compound 3309]	8.00 to 11.00
COC(=O)[C@H](CCNC(=O)C(=O)Nc1ccc(-c2cc[nH]n2)cc1)NC(=O)c1ccc(Nc2nc(NC3(c4ccc(Cl)cc4)CC3)nc(OCC(F)(F)F)n2)cc1 [Compound 3310]	8.00 to 11.00
COC(=O)[C@H](CCNC(=O)C(=O)Nc1ccc(Cn2cccn2)cc1)NC(=O)c1ccc(Nc2nc(NC3(c4ccc(Cl)cc4)CC3)nc(OCC(F)(F)F)n2)cc1 [Compound 3312]	8.00 to 11.00
COC(=O)[C@H](CCNC(=O)C(=O)Nc1ccc(CN2CCCCC2)cc1)NC(=O)c1ccc(Nc2nc(NC3(c4ccc(Cl)cc4)CC3)nc(OCC(F)(F)F)n2)cc1 [Compound 3313]	8.00 to 11.00
COC(=O)[C@H](CCNC(=O)C(=O)Nc1ccc(CNC(N)=O)cc1)NC(=O)c1ccc(Nc2nc(NC3(c4ccc(Cl)cc4)CC3)nc(OCC(F)(F)F)n2)cc1 [Compound 3314]	8.00 to 11.00
COC(=O)[C@H](CCNC(=O)C(=O)Nc1ccc(OCCc2ccccn2)cc1)NC(=O)c1ccc(Nc2nc(NC3(c4ccc(Cl)cc4)CC3)nc(OCC(F)(F)F)n2)cc1 [Compound 3315]	8.00 to 11.00
COC(=O)[C@H](CCNC(=O)C(=O)Nc1ccc(-c2ccno2)cc1)NC(=O)c1ccc(Nc2nc(NC3(c4ccc(Cl)cc4)CC3)nc(OCC(F)(F)F)n2)cc1 [Compound 3316]	8.00 to 11.00
COC(=O)[C@H](CCNC(=O)C(=O)Nc1ccc(-c2nncn2C)cc1)NC(=O)c1ccc(Nc2nc(NC3(c4ccc(Cl)cc4)CC3)nc(OCC(F)(F)F)n2)cc1 [Compound 3317]	8.00 to 11.00
COC(=O)[C@H](CCNC(=O)C(=O)Nc1ccc(-c2csc(N3CCOCC3)n2)cc1)NC(=O)c1ccc(Nc2nc(NC3(c4ccc(Cl)cc4)CC3)nc(OCC(F)(F)F)n2)cc1 [Compound 3318]	8.00 to 11.00
COC(=O)[C@H](CCNC(=O)C(=O)Nc1ccc(Cn2ccnc2)cc1)NC(=O)c1ccc(Nc2nc(NC3(c4ccc(Cl)cc4)CC3)nc(OCC(F)(F)F)n2)cc1 [Compound 3319]	8.00 to 11.00
COC(=O)[C@H](CCNC(=O)C(=O)Nc1ccc(-n2ccnc2C)cc1)NC(=O)c1ccc(Nc2nc(NC3(c4ccc(Cl)cc4)CC3)nc(OCC(F)(F)F)n2)cc1 [Compound 3320]	8.00 to 11.00
COC(=O)[C@H](CCNC(=O)C(=O)Nc1ccc(Cn2ccnc2C)cc1)NC(=O)c1ccc(Nc2nc(NC3(c4ccc(Cl)cc4)CC3)nc(OCC(F)(F)F)n2)cc1 [Compound 3321]	6.00 to 8.00
COCc1ccc(NC(=O)C(=O)NCC[C@H](NC(=O)c2ccc(Nc3nc(NC4(c5ccc(Cl)cc5)CC4)nc(OCC(F)(F)F)n3)cc2)C(=O)OC)cc1 [Compound 3322]	8.00 to 11.00
COC(=O)[C@H](CCNC(=O)C(=O)Nc1ccc(Oc2ccncc2)cc1)NC(=O)c1ccc(Nc2nc(NC3(c4ccc(Cl)cc4)CC3)nc(OCC(F)(F)F)n2)cc1 [Compound 3323]	8.00 to 11.00
COC(=O)[C@H](CCNC(=O)C(=O)Nc1ccc(Oc2cccnc2)cc1)NC(=O)c1ccc(Nc2nc(NC3(c4ccc(Cl)cc4)CC3)nc(OCC(F)(F)F)n2)cc1 [Compound 3324]	8.00 to 11.00
COC(=O)[C@H](CCNC(=O)C(=O)Nc1ccc(OC2CCOCC2)cc1)NC(=O)c1ccc(Nc2nc(NC3(c4ccc(Cl)cc4)CC3)nc(OCC(F)(F)F)n2)cc1 [Compound 3325]	8.00 to 11.00
COC(=O)[C@H](CCNC(=O)C(=O)Nc1ccc(-c2ncco2)cc1)NC(=O)c1ccc(Nc2nc(NC3(c4ccc(Cl)cc4)CC3)nc(OCC(F)(F)F)n2)cc1 [Compound 3326]	8.00 to 11.00
CCOc1ccc(NC(=O)C(=O)NCC[C@H](NC(=O)c2ccc(Nc3nc(NC4(c5ccc(Cl)cc5)CC4)nc(OCC(F)(F)F)n3)cc2)C(=O)OC)cc1 [Compound 3327]	8.00 to 11.00
COC(=O)[C@H](CCNC(=O)C(=O)Nc1ccc(C(C)(C)C)cc1)NC(=O)c1ccc(Nc2nc(NC3(c4ccc(Cl)cc4)CC3)nc(OCC(F)(F)F)n2)cc1 [Compound 3329]	8.00 to 11.00
CCc1ccc(NC(=O)C(=O)NCC[C@H](NC(=O)c2ccc(Nc3nc(NC4(c5ccc(Cl)cc5)CC4)nc(OCC(F)(F)F)n3)cc2)C(=O)OC)cc1 [Compound 3330]	8.00 to 11.00
COC(=O)[C@H](CCNC(=O)C(=O)Nc1ccc(OC(F)(F)F)cc1)NC(=O)c1ccc(Nc2nc(NC3(c4ccc(Cl)cc4)CC3)nc(OCC(F)(F)F)n2)cc1 [Compound 3331]	8.00 to 11.00
COC(=O)[C@H](CCNC(=O)C(=O)Nc1ccc(OC(F)F)cc1)NC(=O)c1ccc(Nc2nc(NC3(c4ccc(Cl)cc4)CC3)nc(OCC(F)(F)F)n2)cc1 [Compound 3332]	8.00 to 11.00
